Reference: patent US20040023884A1, “Biologically active peptides from functional domains of bactericidal/permeability-increasing protein and uses thereof” (priority 1993, published 2004)
In brackets after ≈: the same amount, converted by molar mass. Square brackets hold non-standard residues; d marks the D form. Ends that are not written are not given here. Peptide text beside a SMILES is read from it. Phe(4-NH2) = Nc1ccc(C[C@H](N)C(=O)O)cc1; 1Nal = N[C@@H](Cc1cccc2ccccc12)C(=O)O; Cha = N[C@@H](CC1CCCCC1)C(=O)O

Key:
C. albicans = assay: Radial diffusion fungicidal assay, Candida albicans; type: cell-based; details: radial diffusion
Candida albicans = type: cell-based
Staphylococcus aureus = assay: Radial diffusion bactericidal assay, Staphylococcus aureus; type: cell-based; details: S. aureus; for pmol added to well to achieve a 30 mm^2 bactericidal zone, S. aureus: radial diffusion, PROBIT analysis
[1] = test system: E. coli 0111:B4 (smooth) bacteria; assay: Radial diffusion bactericidal assay, E. coli 0111:B4; type: cell-based; details: for pmol added to well to achieve a 30 mm^2 bactericidal zone, E. coli O111:B4: radial diffusion, PROBIT analysis, E. coli O111:B4 (smooth)
[2] = 3H-heparin binding assay (affinity and capacity); details: for Heparin Capacity: heparin bound at saturation; for Kd: read-out: Heparin Affinity
Summary of the method: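 Peptide fragments were bound to PVDF-membrane wells and incubated with 3H-heparin in blocking buffer for 1 h at 4 °C. After washing, bound radioactivity was quantified by liquid scintillation counting, with BSA background subtracted; rBPI23 served as positive control.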

[3] = test system: rough mutant E. coli J5 bacteria; assay: Radial diffusion bactericidal assay, E. coli J5; type: cell-based; details: for pmol added to well to achieve a 30 mm^2 bactericidal zone, E. coli J5: radial diffusion, PROBIT analysis, E. coli J5 (rough)
Summary of the method: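 Log-phase bacteria, washed in 10 mM sodium phosphate pH 7.4, were seeded at 4×10^6 CFU/mL in underlayer agarose. BPI fragments (5 or 10 μL) went into 3 mm wells for 3 h at 37° C., then overlayer agarose was added. After overnight 37° C. incubation, clearing zones were measured by micrometer.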

RAW 264.7 cells = assay: LPS neutralization cellular proliferation assay, RAW 264.7 cells; type: cell-based, mouse
Method: In this assay, mouse RAW 264.7 cells (ATCC Accession No. T1B71), maintained in RPMI 1640 media (GIBCO), supplemented with 10 mM HEPES buffer (pH 7.4), 2 mM L-glutamine, penicillin (100U/mL), streptomcin (100 μg/mL), 0.075% sodium bicarbonate, […] 2-mercaptoethanol and 10% fetal bovine serum (Hyclone, Inc., Logan, Utah), were first induced by incubation in the presence of 50U/mL recombinant mouse y-interferon (Genzyme, Cambridge, Mass.) for 24 h prior to assay. Induced cells were then mechanically collected and centrifuged at 500×g at 4° C. and then resuspended in 50 mL RPMI 1640 media (without supplements), re-centrifuged and again resuspended in RPMI 1640 media (without supplements). The cells were counted and their concentration adjusted to 2×10^5 cells/mL and 100 μL aliquots were added to each well of a 96-well microtitre plate. The cells were then incubated for about 15 hours with E. coli O113 LPS (Control Standard. Assoc. of Cape Cod. Woods Hole, Mass.), which was added in 100 μL/well aliquots at a concentration of […] in serum-free RPMI 1640 media (this concentration being the result of titration experiments in which LPS concentration was varied between 50 pg/mL and 100 ng/mL). This incubation was performed in the absence or presence of BPI functional domain peptides in varying concentrations between 25 ng/mL and 50 μg/mL. Recombinant human BPI was used as a positive control at a concentration of 1 μg/mL. Cell proliferation was quantitatively measured by the addition of 1 μCi/well [^3H]-thymidine 5 hours after the time of initiation of the assay. After the 15-hour incubation, labeled cells were harvested onto glass fiber filters with a cell harvester (Inotech Biosystems, EQ-384, Sample Processing and Filter Counting System, Lansing, Mich.).

Compound | C. albicans: pmol required for 30 mm^2 zone (C. albicans) [pmol] | MIC C. alb (Candida albicans) [µg/mL] | pmol added to well to achieve a 30 mm^2 bactericidal zone, S. aureus (Staphylococcus aureus) | pmol added to well to achieve a 30 mm^2 bactericidal zone, E. coli O111:B4 [1] | Heparin Capacity [2] [ng] | Kd [2] [nM] | pmol added to well to achieve a 30 mm^2 bactericidal zone, E. coli J5 [3] | EC50 (peptide concentration at which the growth inhibitory effect of LPS was reversed by 50%) (RAW 264.7 cells) [µg/mL] | IC50 (peptide concentration at which RAW cell growth was inhibited by 50%) (RAW 264.7 cells) | fold lower bactericidal activity than BPI.30 (Staphylococcus aureus) [fold] | fold lower bactericidal activity than BPI.30 ([1]; E. coli 0111:B4) [fold] | fold increase in heparin affinity vs BPI.30 [2] [fold] | fold reduction in heparin binding capacity vs BPI.30 [2] [fold] | fold lower bactericidal activity than BPI.30 ([3]; E. coli J5) [fold]
KSKVGWLIKLFHKK [BPI.92] | 298.72 | 3.13 | b (no detectable activity up to 5 μg/well) | b (no detectable activity up to 5 μg/well) | 227.3 | 667 | 331.80 pmol |  |  |  |  |  |  | 
CC[C@H](C)[C@H](NC(=O)[C@H](CC(C)C)NC(=O)[C@H](Cc1cccc2ccccc12)NC(=O)CNC(=O)[C@@H](NC(=O)[C@H](CCCCN)NC(=O)[C@H](CO)NC(=O)[C@@H](N)CCCCN)C(C)C)C(=O)N[C@@H](CCC(N)=O)C(=O)N[C@@H](CC(C)C)C(=O)N[C@@H](Cc1ccccc1)C(=O)N[C@@H](Cc1c[nH]cn1)C(=O)N[C@@H](CCCCN)C(=O)N[C@@H](CCCCN)C(=O)O [BPI.83] (H-KSKVG[1Nal]LIQLFHKK-OH) | 1804.26 |  | 116,500.54 pmol | 51,147.55 pmol | 253.3 | 410 | 164.84 pmol | 1.2 ± 0.1 |  |  |  |  |  | 
KSKVGWLIFLFHKK [BPI.91] | >3843.54 |  | b (no detectable activity up to 5 μg/well) | b (no detectable activity up to 5 μg/well) | 181.2 | 288 | 21,014.73 pmol |  | — (No proliferation decrease up to 50 μg/ml) |  |  |  |  | 
KSKVGWLILLFHKK [BPI.86] | >2048.45 |  | 459,138.55 pmol | b (no detectable activity up to 5 μg/well) | 208.4 | 383 | 1,519.64 pmol | 0.13 ± 0.04 |  |  |  |  |  | 
KSKVKWLIQLFHKK [BPI.97] | 213.22 | 3.13 | b (no detectable activity up to 5 μg/well) | b (no detectable activity up to 5 μg/well) | 252.2 | 765 | 295.58 pmol |  |  |  |  |  |  | 
CC[C@H](C)[C@H](N)C(=O)N[C@@H](CCCCN)C(=O)N[C@H](C(=O)N[C@@H](CO)C(=O)NCC(=O)N[C@@H](CCCCN)C(=O)N[C@@H](Cc1cccc2ccccc12)C(=O)N[C@@H](CCCCN)C(=O)N[C@@H](C)C(=O)N[C@@H](CCC(N)=O)C(=O)N[C@@H](Cc1ccccc1)C(=O)N[C@@H](CCCNC(=N)N)C(=O)N[C@@H](Cc1ccccc1)C(=O)N[C@@H](CC(C)C)C(=O)N[C@@H](CCCCN)C(=O)N[C@@H](CCCCN)C(=O)N[C@@H](CO)C(=O)N[C@@H](CCCCN)C(=O)N[C@H](C(=O)NCC(=O)N[C@@H](Cc1c[nH]c2ccccc12)C(=O)N[C@@H](CC(C)C)C(=O)N[C@H](C(=O)N[C@@H](CCC(N)=O)C(=O)N[C@@H](CC(C)C)C(=O)N[C@@H](Cc1ccccc1)C(=O)N[C@@H](Cc1c[nH]cn1)C(=O)N[C@@H](CCCCN)C(=O)N[C@@H](CCCCN)C(=O)O)[C@@H](C)CC)C(C)C)[C@@H](C)CC [BPI.93] (H-IKISGK[1Nal]KAQFRFLKKSKVGWLIQLFHKK-OH) | >980.27 |  | b (no detectable activity up to 5 μg/well) | 10,118.98 pmol | 291.5 | 387 | 212.87 pmol | 0.9 ± 0.25 | 9.7 ± 0.1 µg/mL (≈ 2.73 µM) |  |  |  |  | 
KSKVGWLIQLFHKKKWKAQKRFLK [BPI.74] | >2148.21 |  | 4,290.18 pmol | 30,610.36 pmol | 207.3 | 218 | 731.94 pmol | 2.7 ± 0.3 | 18.8 ± 0.8 µg/mL | 3.5 | 50 | 2 | 2 | 10
CC[C@H](C)[C@H](NC(=O)[C@H](CC(C)C)NC(=O)[C@H](CC1CCCCC1)NC(=O)CNC(=O)[C@@H](NC(=O)[C@H](CCCCN)NC(=O)[C@H](CO)NC(=O)[C@@H](N)CCCCN)C(C)C)C(=O)N[C@@H](CCC(N)=O)C(=O)N[C@@H](CC(C)C)C(=O)N[C@@H](Cc1ccccc1)C(=O)N[C@@H](Cc1c[nH]cn1)C(=O)N[C@@H](CCCCN)C(=O)N[C@@H](CCCCN)C(=O)O [BPI.144] (H-KSKVG[Cha]LIQLFHKK-OH; N-terminus and C-terminus assumed) | 695.19 | 12.50 (≈ 7.44 µM) | b (no detectable activity up to 5 μg/well) | b (no detectable activity up to 5 μg/well) |  |  | 510.02 pmol |  |  |  |  |  |  | 
KSKVGYLIQLFHKK [BPI.139] | 322.96 | 6.25 | b (no detectable activity up to 5 μg/well) | 3,793.91 pmol |  |  | 1,261.37 pmol |  |  |  |  |  |  | 
CC[C@H](C)[C@H](NC(=O)[C@H](CC(C)C)NC(=O)[C@H](Cc1c[nH]c2ccccc12)NC(=O)CNC(=O)[C@@H](NC(=O)[C@H](CCCCN)NC(=O)[C@H](CO)NC(=O)[C@@H](N)CCCCN)C(C)C)C(=O)N[C@@H](CCC(N)=O)C(=O)N[C@@H](Cc1cccc2ccccc12)C(=O)N[C@@H](Cc1ccccc1)C(=O)N[C@@H](Cc1c[nH]cn1)C(=O)N[C@@H](CCCCN)C(=O)N[C@@H](CCCCN)C(=O)O [BPI.143] (H-KSKVGWLIQ[1Nal]FHKK-OH; N-terminus and C-terminus assumed) | >2838.99 | 25.00 (≈ 13.9 µM) | b (no detectable activity up to 5 μg/well) | b (no detectable activity up to 5 μg/well) |  |  | 12,388.45 pmol |  |  |  |  |  |  | 
CC[C@H](C)[C@H](NC(=O)[C@H](CC(C)C)NC(=O)[C@H](Cc1ccc(N)cc1)NC(=O)CNC(=O)[C@@H](NC(=O)[C@H](CCCCN)NC(=O)[C@H](CO)NC(=O)[C@@H](N)CCCCN)C(C)C)C(=O)N[C@@H](CCC(N)=O)C(=O)N[C@@H](CC(C)C)C(=O)N[C@@H](Cc1ccccc1)C(=O)N[C@@H](Cc1c[nH]cn1)C(=O)N[C@@H](CCCCN)C(=O)N[C@@H](CCCCN)C(=O)O [BPI.133] (H-KSKVG[Phe(4-NH2)]LIQLFHKK-OH; N-terminus and C-terminus assumed) | 284.39 | 12.50 (≈ 7.4 µM) | b (no detectable activity up to 5 μg/well) | b (no detectable activity up to 5 μg/well) |  |  | 2,316.59 pmol |  |  |  |  |  |  | 
